Assay results as given in US11591342B2, “Heterocyclic compound, application thereof and pharmaceutical composition comprising same” (SUZHOU SINOVENT PHARMACEUTICALS CO., LTD., priority 2018, dated 2023).

What was measured:
CYP3A4 = CYP3A4 (Homo sapiens (Human), UniProt P08684); assay: Time-dependent inhibition of CYP3A4 (TDI assay, human liver microsomes); format: in vitro ADME; details: for CYP3A4 TDI % @ 10 μM: human liver microsomes, Midazolam substrate, 30 min with NADPH vs 0 min; for time-dependent inhibition on CYP3A4 (conclusion): conclusion drawn from Table 3, 10 μM
Outline: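 Human liver microsomes (final 1 mg/mL) preincubated with test compound for 0 min without NADPH or 30 min with NADPH in 100 mM K-phosphate pH 7.4, 37 °C. Aliquot then diluted into midazolam substrate plus NADPH and incubated 15 min at 37 °C. Quenched with acetonitrile; metabolite read by LC-MS/MS.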

LPA18:2 in mouse plasma = assay: Inhibition of LPA in mouse plasma (plasma LPA18:2 assay, LC-MS/MS); format: biochemical, CD1 mice; details: fresh CD1 mouse plasma, LPA18:2, 37° C. for 120 min
Procedure: Effect Example 2. Inhibition of LPA in Mouse Plasma by Compounds
20 mM stock solutions of the compounds were prepared with DMSO and then diluted to 1 mM, which was subjected to a serial 3-fold dilution to yield 10 working solutions.
Collection of Fresh Mouse Plasma:
CD1 mice were euthanized by CO2 inhalation. Approximately 1 mL of whole blood was taken by cardiac puncture, with EDTA-K2 for anticoagulation. The blood was centrifuged at 3220 g for 10 min at 4° C. for plasma collection.
Reactions were performed in a 96-well plate, and the samples were tested in duplicate. 1 μL of each working solution was added to 100 μL of plasma, with the final concentrations of […]. 1 μL of DMSO was added to plasma to serve as blank. The samples were incubated in a water bath at 37° C. for 120 min, and 600 μL of 10 μM tolbutamide in methanol was added to terminate the reaction. Tolbutamide also served as an internal standard. After 5 min of vortex mixing, the samples were centrifuged at 3220 g for 45 min at 4° C. to precipitate the protein. 100 μL of the supernatant was transferred to a new plate, diluted with water based on LC-MS response and peak shapes, mixed well and analyzed by LC-MS/MS.
LPA18:2 was quantified using peak area ratio (LPA18:2/internal standard), requiring no standard curve. For test compounds of different concentrations, LPA data was represented by a percentage decrease of LPA: 100-[((LPA peak area ratio of compound)/(LPA peak area ratio of control))×100]. IC50 was calculated using Graphpad Prism 6.0 software.

Autotaxin (ATX) = Autotaxin (ATX) (Homo sapiens (Human), UniProt Q13822); assay: ATX bioactivity assay (Amplex Red / choline oxidase / HRP fluorescence, LPC 16:0 substrate); format: biochemical; details: 30 min room temperature

Chain of CYP3A4 (P08684 whole entry): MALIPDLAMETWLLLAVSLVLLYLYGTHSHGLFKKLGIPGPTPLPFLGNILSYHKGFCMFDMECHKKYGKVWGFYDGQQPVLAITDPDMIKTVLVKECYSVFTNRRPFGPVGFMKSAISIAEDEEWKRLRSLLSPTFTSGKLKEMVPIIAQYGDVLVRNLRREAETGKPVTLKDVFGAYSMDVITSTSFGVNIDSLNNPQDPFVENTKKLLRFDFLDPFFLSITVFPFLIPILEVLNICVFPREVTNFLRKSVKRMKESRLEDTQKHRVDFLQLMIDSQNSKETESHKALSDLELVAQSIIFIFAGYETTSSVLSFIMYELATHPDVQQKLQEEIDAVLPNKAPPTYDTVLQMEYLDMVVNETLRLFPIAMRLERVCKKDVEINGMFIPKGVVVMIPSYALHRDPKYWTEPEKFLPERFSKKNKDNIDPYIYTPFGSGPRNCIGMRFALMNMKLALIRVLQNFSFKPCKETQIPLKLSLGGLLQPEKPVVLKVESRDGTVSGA

SMILES | CYP3A4 TDI % @ 10 μM (CYP3A4) | time-dependent inhibition on CYP3A4 (conclusion) (CYP3A4) | IC50 (LPA18:2 in mouse plasma) | IC50 (Autotaxin (ATX))
CCn1nc2c(F)cc(N3CCN(CC(=O)N4CC(O)C4)CC3)cc2c1N(C)c1nc(-c2ccc(F)cc2)c(C#N)s1 [Compound S-0025, 2-((2-ethyl-7-fluoro-5-(4-(2-(3-hydroxyazetidin-1-yl)-2-oxoethyl)piperazin-1-yl)-2H-indazol-3-yl)(methyl)amino)-4-(4-fluorophenyl)thiazole-5-carbonitrile] | 34.21% | weak time-dependent inhibition on CYP3A4 | 131 nM | 88 nM
CCN(c1nc(-c2ccc(F)cc2)c(C#N)s1)c1c2cc(N3CCN(CC(=O)N4CC(O)C4)CC3C(F)(F)F)cc(F)c2nn1CC (single isomer, unassigned) [Compound S-0134B, 2-(ethyl (2-ethyl-7-fluoro-5-(4-(2-(3-hydroxyazetidin-1-yl)-2-oxoethyl)-2-(trifluoromethyl)piperazin-1-yl)-2H-indazol-3-yl)amino)-4-(4-fluorophenyl)thiazole-5-carbonitrile] | 41.82% | weak time-dependent inhibition on CYP3A4 | 98 nM | 11 nM
CCc1[nH]c2ccc(N3CCN(CC(=O)N4CC(O)C4)CC3)nc2c1N(C)c1nc(-c2ccc(F)cc2)c(C#N)s1 [Compound S-0098, 2-((2-ethyl-5-(4-(2-(3-hydroxyazetidin-1-yl)-2-oxoethyl)piperazin-1-yl)-1H-pyrrolo[3,2-b]pyridin-3-yl)(methyl)amino)-4-(4-fluorophenyl) thiazole-5-carbonitrile] | 37.19% | weak time-dependent inhibition on CYP3A4 | 2 nM | 31 nM
CCn1nc2ccc(N3CCN(CC(=O)N4CC(O)C4)CC3)nc2c1N(C)c1nc(-c2ccc(F)cc2)c(C#N)s1 [Compound S-0094, 2-((2-ethyl-5-(4-(2-(3-hydroxyazetidin-1-yl)-2-oxoethyl)piperazin-1-yl)-2H-pyrazolo[4,3-b]pyridin-3-yl)(methyl)amino)-4-(4-fluorophenyl) thiazole-5-carbonitrile] | 20.88% | no time-dependent inhibition on CYP3A4 | 13 nM | 23 nM
CCc1oc2ccc(N3CCN(CC(=O)N4CC(O)C4)CC3)nc2c1N(C)c1nc(-c2ccc(F)cc2)c(C#N)s1 [Compound S-0097, 2-((2-ethyl-5-(4-(2-(3-hydroxyazetidin-1-yl)-2-oxoethyl)piperazin-1-yl)furo[3,2-b]pyridin-3-yl)(methyl)amino)-4-(4-fluorophenyl)thiazole-5-carbonitrile] | 12.51% | no time-dependent inhibition on CYP3A4 | 160 nM | 160 nM
CCn1nc2c(C)cc(N3CCN(CC(=O)N4CC(O)C4)CC3)nc2c1N(C)c1nc(-c2ccc(F)cc2)c(C#N)s1 [Compound S-0095, 2-((2-ethyl-5-(4-(2-(3-hydroxyazetidin-1-yl)-2-oxoethyl)piperazine-1-yl)-7-methyl-2H-pyrazolo[4,3-b]pyridin-3-yl)(methyl)amino)-4-(4-fluorophenyl)thiazole-5-carbonitrile] | 2.91% | no time-dependent inhibition on CYP3A4 | 309 nM | 119 nM
CCc1oc2ccc(N3CCN(CC(=O)N4CC(O)C4)CC3)nc2c1N(CC)c1nc(-c2ccc(F)cc2)c(C#N)s1 [Compound S-0105CP, 2-(ethyl(2-ethyl-5-(4-(2-(3-hydroxyazetidin-1-yl)-2-oxoethyl)piperazin-1-yl)furo[3,2-b]pyridin-3-yl)amino)-4-(4-fluorophenyl)thiazole-5-carbonitrile] | 0% | no time-dependent inhibition on CYP3A4 | 111 nM | 49 nM
CCc1nn2c(C)cc(N3CCN(CC(=O)N4CC(O)C4)CC3)nc2c1N(C)c1nc(-c2ccc(F)cc2)c(C#N)s1 [Compound S-0035, 2-((2-ethyl-5-(4-(2-(3-hydroxyazetidin-1-yl)-2-oxoethyl)piperazin-1-yl)-7-methylpyrazolo[1,5-a]pyrimidin-3-yl)(methyl)amino)-4-(4-fluorophenyl)thiazole-5-carbonitrile] | −4.84% | no time-dependent inhibition on CYP3A4 | 300 nM | 62 nM
CCN(c1nc(-c2ccc(F)cc2)c(C#N)s1)c1c2nc(N3CCN(CC(=O)N4CC(O)C4)CC3)cc(C)c2nn1CC [Compound S-0124, 2-(ethyl(2-ethyl-5-(4-(2-(3-hydroxyazetidin-1-yl)-2-oxoethyl)piperazin-1-yl)-7-methyl-2H-pyrazolo[4,3-b]pyridin-3-yl)amino)-4-(4-fluorophenyl) thiazole-5-carbonitrile] | 8.74% | no time-dependent inhibition on CYP3A4 | 96 nM | 24 nM
CCc1sc2ccc(N3CCN(CC(=O)N4CC(O)C4)CC3)nc2c1N(C)c1nc(-c2ccc(F)cc2)c(C#N)s1 [Compound S-0129, 2-((2-ethyl-5-(4-(2-(3-hydroxyazetidin-1-yl)-2-oxoethyl)piperazin-1-yl)thieno[3,2-b]pyridin-3-yl)(methyl)amino)-4-(4-fluorophenyl)thiazole-5-carbonitrile] | 14.42% | no time-dependent inhibition on CYP3A4 | 268 nM | 264 nM
CCc1c(N(C)c2nc(-c3ccc(F)cc3)c(C#N)s2)c2nc(N3CCN(CC(=O)N4CC(O)C4)CC3)ccc2n1C [Compound S-0128, 2-((2-ethyl-5-(4-(2-(3-hydroxyazetidin-1-yl)-2-oxoethyl)piperazin-1-yl)-1-methyl-1H-pyrrolo[3,2-b]pyridin-3-yl)(methyl)amino)-4-(4-fluorophenyl)thiazole-5-carbonitrile] | 33.64% | weak time-dependent inhibition on CYP3A4 | 57 nM | 142 nM
CCN(c1nc(-c2ccc(F)cc2)c(C#N)s1)c1c2cc(N3CCN(CC(=O)N4CC(O)C4)CC3)cc(F)c2nn1CC [Compound S-0122, 2-(ethyl(2-ethyl-7-fluoro-5-(4-(2-(3-hydroxyazetidin-1-yl)-2-oxoethyl)piperazin-1-yl)-2H-indazol-3-yl)amino)-4-(4-fluorophenyl)thiazole-5-carbonitrile] | 38.25% | weak time-dependent inhibition on CYP3A4 | 61 nM | 25 nM
CCc1nc2ncc(N3CCN(CC(=O)N4CC(O)C4)CC3)cn2c1N(C)c1nc(-c2ccc(F)cc2)c(C#N)s1 [Compound S-0021, 2-((2-ethyl-6-(4-(2-(3-hydroxyazetidin-1-yl)-2-oxoethyl)piperazin-1-yl)imidazo[1,2-a]pyrimidin-3-yl)(methyl)amino)-4-(4-fluorophenyl)thiazole-5-carbonitrile] | 1.67% | no time-dependent inhibition on CYP3A4 | 790 nM | 102 nM
